Legend:
Assay type in all cases: biochemical, Gluconobacter oxydans G624
His-tagged SLDH [1] = target: T1, His-tagged SLDH (Gluconobacter oxydans, UniProt Q9KWR5); test: SLDH activity: coenzyme dependency and active pH range (increase in NAD(P)H, absorbance at 340 nm); details: for Activity: substrate sorbitol, 25° C., coenzyme varied
Procedure: To a solution containing 0.1 ml of 50 mM NAD^+ (or NADP^+), 0.2 ml of 500 mM buffer, 10 μl of His-tagged SLDH solution (2.1 μg protein) prepared in Example 2(4) and distilled water (0.29 ml) was added to 500 mM sorbitol (0.4 ml) to start the reaction (25° C.), and increase in NADH (or NADPH) was measured by a spectrophotometer (UV-2200; Shimadzu) based on absorbance at 340 nm as an index. For the reaction solutions having pH 10.1 and pH 9.0, glycine/NaOH buffer was used, and for reaction solutions having pH 8.0 and pH 7.0, potassium phosphate buffer was used. The enzyme activity (1 unit) was defined to be an amount to generate 1 μmol of NADH (or NADPH) per minute. The molecular extinction coefficient of NAD(P)H was 6.3 mM^−1 cm^−1. The protein amount was measured with bovine serum albumin (BSA) as a standard by the Lowry method.

His-tagged SLDH [2] = target: T1, His-tagged SLDH; test: SLDH activity: substrate specificity; details: glycine/NaOH buffer pH 10.1, coenzyme NADP+; for Activity: substrate varied
His-tagged SLDH [3] = target: T1, His-tagged SLDH; test: Confirmation of SLDH activity: reaction of purified His-tagged SLDH with sorbitol, product analysis; details: 10 mM (1.82 mg/ml) sorbitol, pH 10.1, 5 mM NADP^+, 25° C., 24 hours
Procedure: In the same manner as in the above-mentioned (2) except that the cell-free extract to be applied was by 10 ml, the resin after His-tagged SLDH adsorption was washed 6 times, and His-tagged SLDH was eluted with 50 mM imidazole and 100 mM NaCl-containing 20 mM Tris-HCl (5 ml, pH 8.0), His-tagged SLDH was purified. The obtained His-tagged SLDH was reacted with sorbitol and the resulting product was analyzed. The composition of the reaction solution (2 ml) was 10 mM (1.82 mg/ml) sorbitol, 0.1 M glycine/NaOH buffer (pH 10.1), 5 mM NADP^+ and His-tagged SLDH 0.2 ml (41.4 μg protein) and the reaction was carried out at 25° C. for 24 hours. […] Thus, His-tagged SLDH purified by cobalt type IMAC was confirmed to be sorbitol dehydrogenase that oxidizes sorbitol and generates sorbose.

[4] = pH 7.0, potassium phosphate buffer
[5] = pH 8.0, potassium phosphate buffer

T1 sequence (Q9KWR5 entry or part of it): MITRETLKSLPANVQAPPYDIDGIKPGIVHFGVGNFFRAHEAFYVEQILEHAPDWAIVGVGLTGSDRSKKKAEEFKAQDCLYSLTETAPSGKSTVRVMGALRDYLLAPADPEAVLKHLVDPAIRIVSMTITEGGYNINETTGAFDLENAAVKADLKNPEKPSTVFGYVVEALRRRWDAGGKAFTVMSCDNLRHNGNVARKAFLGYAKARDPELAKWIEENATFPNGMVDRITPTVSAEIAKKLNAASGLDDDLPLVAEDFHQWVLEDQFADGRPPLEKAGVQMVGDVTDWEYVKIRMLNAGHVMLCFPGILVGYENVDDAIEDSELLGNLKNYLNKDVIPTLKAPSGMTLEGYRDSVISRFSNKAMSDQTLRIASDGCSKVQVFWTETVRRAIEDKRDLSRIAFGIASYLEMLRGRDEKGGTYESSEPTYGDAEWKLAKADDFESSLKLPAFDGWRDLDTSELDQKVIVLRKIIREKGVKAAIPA

`NC(=O)c1ccc[n+]([C@@H]2O[C@H](COP(=O)([O-])OP(=O)(O)OC[C@H]3O[C@@H](n4cnc5c(N)ncnc54)[C@H](OP(=O)(O)O)[C@@H]3O)[C@@H](O)[C@H]2O)c1` [NADP^+] was tested, and the “Coenzyme specificity (in words)” value (His-tagged SLDH [1]; NAD^+ versus NADP^+ as coenzyme) was “higher specificity”, the Activity (His-tagged SLDH [1]; [4]) was 4.2 U/mg protein and the Activity (His-tagged SLDH [1]; [5]) was 22.9 U/mg protein. The Activity (His-tagged SLDH [1]; pH 9.0, glycine/NaOH buffer) was 30.0 U/mg protein and the Activity (His-tagged SLDH [1]; pH 10.1, glycine/NaOH buffer) was 130.2 U/mg protein.

`NC(=O)c1ccc[n+]([C@@H]2O[C@H](COP(=O)([O-])OP(=O)(O)OC[C@H]3O[C@@H](n4cnc5c(N)ncnc54)[C@H](O)[C@@H]3O)[C@@H](O)[C@H]2O)c1` [NAD^+] was tested, and the Activity (His-tagged SLDH [1]; [4]) was 0.1 U/mg protein, the Activity (His-tagged SLDH [1]; [5]) was 1.2 U/mg protein and the Activity (His-tagged SLDH [1]; pH 9.0, glycine/NaOH buffer) was 3.4 U/mg protein. For the same compound, the Activity (His-tagged SLDH [1]; pH 10.1, glycine/NaOH buffer) was 8.1 U/mg protein.

For `OC[C@@H](O)C(O)[C@H](O)CO` [arabitol], the “Use as substrate by SLDH (in words)” value (His-tagged SLDH [2]) was “could utilize” and the Activity (His-tagged SLDH [2]) was 88.1 U/mg protein.

`OCC(O)CO` [glycerol] was tested, and the “Use as substrate by SLDH (in words)” value (His-tagged SLDH [2]) was “no action” and the Activity (His-tagged SLDH [2]) was 0 U/mg protein.

In the case of `O[C@H]1[C@H](O)[C@@H](O)[C@H](O)[C@@H](O)[C@H]1O` [inositol], the “Use as substrate by SLDH (in words)” value (His-tagged SLDH [2]) is reported as “no action” and the Activity (His-tagged SLDH [2]) is reported as 0 U/mg protein.

In the case of `OC[C@@H](O)[C@@H](O)[C@H](O)[C@H](O)CO` [mannitol], the “Use as substrate by SLDH (in words)” value (His-tagged SLDH [2]) is reported as “could utilize” and the Activity (His-tagged SLDH [2]) is reported as 85.7 U/mg protein.

`OC[C@@H](O)[C@@H](O)[C@@H](O)CO` [ribitol] was tested, and the “Use as substrate by SLDH (in words)” value (His-tagged SLDH [2]) was “no action” and the Activity (His-tagged SLDH [2]) was 0 U/mg protein.

In the case of `OC[C@@H](O)[C@@H](O)[C@H](O)[C@@H](O)CO` [sorbitol], the Activity (His-tagged SLDH [2]) is reported as 130.2 U/mg protein, the “conversion efficiency (sorbitol to sorbose)” value (His-tagged SLDH [3]; 41.4 μg protein) is reported as 62% and the sorbitol remaining (His-tagged SLDH [3]) is reported as 0.70 mg/mL.

`O=C(CO)[C@H](O)[C@@H](O)[C@H](O)CO` [sorbose] was tested, and the sorbose generated (His-tagged SLDH [3]) was 1.12 mg/mL.

With `OC[C@@H](O)[C@H](O)[C@@H](O)CO` [xylitol] the “Use as substrate by SLDH (in words)” value (His-tagged SLDH [2]) was “no action” and the Activity (His-tagged SLDH [2]) was 0 U/mg protein.
